This note sets out measurements from patent US20130028959A1, “Liposomes for Preventing the Spread of HIV” (Massachusetts Institute of Technology, priority 2009, published 2013).

The nature of the data set: Surface charge of lipids used to make liposomes. The format is physicochemical. As to conditions: lipid used to make liposomes.

Consider “Phosphatidylcholine [Phosphatidylcholine (PC)]”, for which the Relative charge entry was “No”.
